Reference: PubChem BioAssay AID256 (DTP/NCI, 2004)
“And” between values parts separate entries of the source, which are not always exact repeats. Equal values may be shown once. Inconclusive results and toxic doses are left out.

System: CD2F1 mice, L1210 leukemia ip, survival T/C
Assay: NCI In Vivo Anticancer Drug Screen. Data for tumor model L1210 Leukemia (intraperitoneal) in CD2F1 (CDF1) mice
Conditions: endpoint: mean survival time, higher = longer survival
Summary of the method: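 Activity against a transplanted murine tumor was judged by comparing the compound group with a vehicle group. The outcome in the treated animals was divided by that in the controls.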

[1] = dose: 25.0 mg/kg/injection, schedule: Q04DX003 (ip), vehicle: saline with Tween-80
[2] = dose: 50.0 mg/kg/injection, schedule: Q04DX003 (ip), vehicle: saline with Tween-80
[3] = dose: 100.0 mg/kg/injection, schedule: Q04DX003 (ip), vehicle: saline with Tween-80
[4] = dose: 50.0 mg/kg/injection, schedule: Q01DX009 (ip), vehicle: saline with Tween-80
[5] = dose: 100.0 mg/kg/injection, schedule: Q01DX009 (ip), vehicle: saline with Tween-80
[6] = dose: 100.0 mg/kg/injection, schedule: Q04DX003 (ip), vehicle: saline
[7] = dose: 100.0 mg/kg/injection, schedule: Q01DX001 (ip), vehicle: saline with Tween-80
[8] = dose: 100.0 mg/kg/injection, schedule: Q04DX002 (ip), vehicle: saline with Tween-80
[9] = dose: 200.0 mg/kg/injection, schedule: Q04DX002 (ip), vehicle: saline with Tween-80

With `CN1CCN(C(=O)Nc2ccc(N=Nc3ccccc3)cc2)CC1` the T/C [1] was 95 % of control, the T/C [2] was 95 % of control and the T/C [3] was 88 % of control.
`O=C(Nc1ccccc1)c1ccc(Cl)c([N+](=O)[O-])c1` was tested, and the T/C (dose: 25.0 mg/kg/injection, schedule: Q01DX009 (ip), vehicle: saline with Tween-80) was 95 % of control, the T/C [1] was 86 % of control and the T/C [4] was 97 % of control. For the same molecule, the T/C [2] was 89 % of control, the T/C [5] was 100 % of control and the T/C [3] was 94 % of control and 101 % of control.
With `CCN(CC)C(=O)c1ccncc1` the T/C [6] was 101 % of control, the T/C (dose: 200.0 mg/kg/injection, schedule: Q04DX003 (ip), vehicle: saline) was 104 % of control and the T/C (dose: 400.0 mg/kg/injection, schedule: Q04DX003 (ip), vehicle: saline) was 101 % of control.
For `CCCCCCCC[n+]1cccc(C(=O)c2ccccc2)c1`, the T/C (dose: 75.0 mg/kg/injection, schedule: Q01DX001 (ip), vehicle: saline) was 105 % of control.
`O=C(NO)Nc1ccc(Cl)cc1` was tested, and the T/C (dose: 8.0 mg/kg/injection, schedule: Q03HX024 (ip), vehicle: other) was 95 % of control, the T/C (dose: 16.0 mg/kg/injection, schedule: Q03HX024 (ip), vehicle: other) was 92 % of control and the T/C (dose: 32.0 mg/kg/injection, schedule: Q03HX024 (ip), vehicle: other) was 95 % of control. For the same molecule, the T/C (dose: 62.0 mg/kg/injection, schedule: Q03HX024 (ip), vehicle: saline with Tween-80) was 106 % of control, the T/C (dose: 64.0 mg/kg/injection, schedule: Q03HX024 (ip), vehicle: other) was 93 % of control and the T/C (dose: 93.0 mg/kg/injection, schedule: Q03HX024 (ip), vehicle: saline with Tween-80) was 100 % of control. The T/C [3] was 97 % of control, the T/C (dose: 128.0 mg/kg/injection, schedule: Q03HX024 (ip), vehicle: other) was 96 % of control and the T/C (dose: 200.0 mg/kg/injection, schedule: Q04DX003 (ip), vehicle: saline with Tween-80) was 100 % of control. For the same molecule, the T/C (dose: 400.0 mg/kg/injection, schedule: Q04DX003 (ip), vehicle: saline with Tween-80) was 95 % of control.
`COc1cc2c(cc1O)CCCC=C2` was tested, and the T/C [4] was 100 % of control, the T/C [5] was 96 % of control and the T/C (dose: 200.0 mg/kg/injection, schedule: Q01DX009 (ip), vehicle: saline with Tween-80) was 92 % of control.
For `C/C=C/C(=O)Nc1ccc(Cl)c(Cl)c1`, the T/C (dose: 25.0 mg/kg/injection, schedule: Q01DX001 (ip), vehicle: saline with Tween-80) was 102 % of control, the T/C (dose: 50.0 mg/kg/injection, schedule: Q01DX001 (ip), vehicle: saline with Tween-80) was 101 % of control and the T/C [7] was 95 % of control.
With `[Cl][Pt+2][Cl].[NH-]C1CCCC1.[NH2-]` the T/C (dose: 0.39 mg/kg/injection, schedule: Q04DX003 (ip), vehicle: water) was 106 % of control, the T/C (dose: 0.78 mg/kg/injection, schedule: Q04DX003 (ip), vehicle: water) was 122 % of control and the T/C (dose: 3.12 mg/kg/injection, schedule: Q04DX003 (ip), vehicle: saline with Tween-80) was 182 % of control. For the same molecule, the T/C (dose: 3.13 mg/kg/injection, schedule: Q04DX003 (ip), vehicle: water) was 156 % of control.
`COc1ccc2c(c1)OC(OC)(c1ccc(OC)c(OC)c1)C(O)(OC)C2=O` (stereo not drawn) was tested, and the T/C (dose: 50.0 mg/kg/injection, schedule: Q01DX001 (ip), vehicle: saline) was 102 % of control, the T/C (dose: 100.0 mg/kg/injection, schedule: Q01DX001 (ip), vehicle: saline) was 98 % of control and the T/C (dose: 200.0 mg/kg/injection, schedule: Q01DX001 (ip), vehicle: saline) was 98 % of control. For the same molecule, the T/C (dose: 400.0 mg/kg/injection, schedule: Q01DX001 (ip), vehicle: saline) was 96 % of control.
With `NS(=O)(=O)c1ccc(NC(=O)Oc2ccc([N+](=O)[O-])cc2)cc1` the T/C [7] was 93 % of control, the T/C (dose: 200.0 mg/kg/injection, schedule: Q01DX001 (ip), vehicle: saline with Tween-80) was 93 % of control and the T/C (dose: 400.0 mg/kg/injection, schedule: Q01DX001 (ip), vehicle: saline with Tween-80) was 101 % of control.
In the case of `CN(C)CCCNC1CCC(NCCCN(C)C)CC1` (stereo not drawn), the T/C (dose: 25.0 mg/kg/injection, schedule: Q01DX009 (ip), vehicle: saline) is reported as 96 % of control and the T/C [6] is reported as 98 % of control.
With `NC(=O)OCCc1c2ccccc2[n+]([O-])c2ccccc12` the T/C (dose: 50.0 mg/kg/injection, schedule: Q04DX002 (ip), vehicle: saline with Tween-80) was 98 % of control, the T/C [8] was 95 % of control and the T/C [9] was 98 % of control. For the same molecule, the T/C (dose: 400.0 mg/kg/injection, schedule: Q04DX002 (ip), vehicle: saline with Tween-80) was 95 % of control.
`COc1ccccc1NC(=O)Oc1ccc(Cl)cc1Cl` was tested, and the T/C [8] was 103 % of control and the T/C [9] was 95 % of control.
